Test results: patent US9012500B2, “PKC-ε activator” (Nishizaki Bioinformation Research Institute, priority 2010, dated 2015)

What was measured:
[1] = test system: glutamic acid release from the hippocampus; test: Glutamic acid release from rat hippocampus sections (HPLC); format: cell-based
PKC-ε = target: T1, PKC-ε (Homo sapiens, UniProt Q02156); test: PKC assay in cell-free system with PKC isozymes; format: biochemical
T1 sequence (Q02156 1-737): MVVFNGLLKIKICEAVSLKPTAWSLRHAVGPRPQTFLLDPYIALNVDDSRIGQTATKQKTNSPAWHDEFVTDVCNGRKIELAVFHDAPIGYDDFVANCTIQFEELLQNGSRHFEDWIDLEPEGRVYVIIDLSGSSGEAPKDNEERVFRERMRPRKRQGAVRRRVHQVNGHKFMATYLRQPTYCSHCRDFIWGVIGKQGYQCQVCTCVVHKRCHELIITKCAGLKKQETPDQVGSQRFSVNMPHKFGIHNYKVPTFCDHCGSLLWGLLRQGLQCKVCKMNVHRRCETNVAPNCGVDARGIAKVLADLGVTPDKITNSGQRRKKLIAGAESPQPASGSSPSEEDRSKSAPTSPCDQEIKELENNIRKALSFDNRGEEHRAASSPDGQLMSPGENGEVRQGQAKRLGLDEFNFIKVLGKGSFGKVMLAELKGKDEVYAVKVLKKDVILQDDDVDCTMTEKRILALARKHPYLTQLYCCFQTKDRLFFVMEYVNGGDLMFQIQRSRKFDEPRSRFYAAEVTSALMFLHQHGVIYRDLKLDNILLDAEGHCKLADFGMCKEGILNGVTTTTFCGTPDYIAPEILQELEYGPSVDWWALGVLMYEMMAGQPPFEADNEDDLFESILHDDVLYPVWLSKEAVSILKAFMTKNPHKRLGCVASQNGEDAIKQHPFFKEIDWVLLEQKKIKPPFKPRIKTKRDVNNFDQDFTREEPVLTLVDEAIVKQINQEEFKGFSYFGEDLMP
Procedure: The PKC activity in a cell-free system was quantified by the method described in a publication [Kanno T et al., J Lipid Res 47 (6):1146-1156, 2006]. The summary is as described below.
Synthetic PKC substrate peptide (10 μM) was reacted with various PKC isozymes in a medium containing 20 mM Tris-HCl (pH 7.5), 5 mM Mg-acetate, 10 μM ATP and each DCP-LA optical isomer (10 μM) in the absence of phosphatidylserine and diacylglycerol at 30° C. for 5 min. When the activity with new types of PKC (PKC-δ, -ε, -η and -μ) was to be measured, a medium free of Ca^2+ was used and when the activity with other PKC isozyme was to be measured, a medium containing 100 μM Ca^2+ was used. After loading on reversed-phase HPLC (LC-10ATvp, Shimadzu Co., Kyoto, Japan), a substrate peptide peak and a new resultant product peak were detected at the absorbance of 214 nm. The areas of the non-phosphorylated and phosphorylated substrate peptides m were measured (total area corresponds to the concentration of PKC substrate peptide used), and the amount of phosphorylated substrate peptide was calculated. The phosphorylated substrate peptide level (pmol/l min) was used as an index of PKC activity.

[2] = test system: serotonin release from the hypothalamus; test: Serotonin release from rat hypothalamus sections (HPLC); format: cell-based
[3] = test system: PKC activity of rat PC-12 cells; test: Intracellular PKC assay in PC-12 cells; format: cell-based
Procedure: According to the method described in a publication [Kanno T et al., J Lipid Res 47 (6):1146-1156, 2006], the PKC activity of rat PC-12 cells was assayed. The cells were treated with each DCP-LA optical isomer at 37° C. for 10 min. The treatment was performed in an extracellular solution [137 mM NaCl, 5.4 mM KCl, 10 mM MgCl2, 5 mM ethyleneglycol-bis(2-aminoethylether)-N,N,N′,N′-tetraacetic acid (EGTA), 0.3 mM Na2HPO4, 0.4 mM K2HPO4 and 20 mM 4-(2-hydroxyethyl)-1-piperazin-ethanesulfonic acid, pH 7.2]. Then, the cells were rinsed with 100 μl of phosphate-buffered saline (PBS) in the absence of Ca^2+, and incubated in an extracellular solution (50 μl) containing 50 μg/ml digitonin, 25 mM glycerol 2-phosphate, 200 μM ATP and 100 μM synthetic PKC substrate peptide (Pyr-Lys-Arg-Pro-Ser-Gln-Arg-Ser-Lys-Tyr-Leu (SEQ ID NO: 1); MW, 1,374; Pyr: […]) at 37° C. for 15 min. […] A substrate peptide peak and a new resultant product peak were detected at the absorbance of 214 nm (SPD-10Avp UV-VIS detector, Shimadzu Co., Kyoto, Japan). […] The molecular weight was calculated from the two standard spectra of bradykinin (MW 1060.2) and substance P (MW 1672.9).
The areas of the non-phosphorylated and phosphorylated substrate peptides were measured (total area corresponds to the concentration of PKC substrate peptide used). […]

activation of PKC isozymes in cell-free system (selectivity) (PKC-ε; 10 μM, absence of phosphatidylserine and diacylglycerol, FIG. 4): selective and direct activation of PKC-ε
PKC-ε activation action compared to the other optical isomers (PKC-ε; cell-free system, 10 μM, FIG. 6): highest ability
concentration at which the PKC activation action reaches maximum (bell-shaped) (PKC-ε; cell-free system, FIG. 5): about 25 μM
SMILES: CCCCC[C@@H]1C[C@@H]1C[C@@H]1C[C@H]1CCCCCCCC(=O)O [α,β-DCP-LA, 8-[(1R,2S)-2-{(1R,2R)-2-pentylcyclopropylmethyl}-cyclopropyl]octanoic acid]
glutamic acid release stimulation action compared to the other optical isomers ([1]; 100 nM, in the presence of nicotine (1 μM), FIG. 7): remarkably high
concentration at which glutamic acid release stimulation action reaches maximum (bell-shaped) ([1]; rat hippocampus sections, FIG. 8): about 100 nM
glutamic acid release, substance alone vs non-treated group ([1]; treated alone, FIG. 9): did not show a remarkable difference
effect on glutamic acid release caused by nicotine ([1]; with nicotine (1 μM), FIG. 9): remarkably enhanced
serotonin release stimulation action compared to the other optical isomers ([2]; 100 nM, in the presence of nicotine (1 μM), FIG. 13): remarkably high
concentration at which serotonin release stimulation action reaches maximum (bell-shaped) ([2]; rat hypothalamus sections, FIG. 14): about 100 nM
serotonin release, substance alone vs non-treated group ([2]; treated alone, FIG. 15): did not show a remarkable difference
effect on serotonin release caused by nicotine ([2]; with nicotine (1 μM), FIG. 15): remarkably enhanced
PKC activation action on PC-12 cells compared to the other optical isomers ([3]; 100 nM, 37° C., 10 min, FIG. 1): most strongly
concentration at which the PKC activation action reaches maximum (bell-shaped) ([3]; PC-12 cells, FIG. 2): about 100 nM
